Assay results from patent US9657009B2, “Heteroaryl substituted pyridyl compounds useful as kinase modulators” (BRISTOL-MYERS SQUIBB COMPANY, priority 2012, dated 2017).

Biological target: IRAK4 (Homo sapiens (Human), UniProt Q9NWZ3)
Assay: IRAK4 Inhibition Assay
Type: biochemical
Conditions: ATP 500 μM; IRAK4 0.6 nM; 60 min at room temperature; read-out: IRAK4 IC50
Protocol: IRAK4 Inhibition Assay The assays were performed in U-bottom 384-well plates. […] The reaction was initiated by the combination of IRAK4 with substrates and test compounds. The reaction mixture was incubated at room temperature for 60 min. and terminated by adding 45 μL of 35 mM EDTA to each sample.

Chain of IRAK4 (Q9NWZ3 whole entry, species assumed): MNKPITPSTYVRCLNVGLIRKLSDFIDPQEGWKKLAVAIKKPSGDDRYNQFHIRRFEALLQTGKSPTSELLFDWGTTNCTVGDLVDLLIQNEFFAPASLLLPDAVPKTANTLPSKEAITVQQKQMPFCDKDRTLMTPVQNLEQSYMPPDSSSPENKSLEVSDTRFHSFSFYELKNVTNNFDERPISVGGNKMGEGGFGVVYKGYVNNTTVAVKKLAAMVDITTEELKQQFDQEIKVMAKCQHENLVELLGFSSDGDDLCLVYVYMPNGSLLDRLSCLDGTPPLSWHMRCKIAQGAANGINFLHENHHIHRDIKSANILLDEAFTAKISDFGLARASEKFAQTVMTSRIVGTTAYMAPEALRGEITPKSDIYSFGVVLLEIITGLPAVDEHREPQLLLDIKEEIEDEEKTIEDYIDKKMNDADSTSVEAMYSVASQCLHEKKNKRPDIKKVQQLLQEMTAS

IC50 | Structure (SMILES)
1.2 nM | CC(C)NC(=O)N[C@H](C)CCNC(=O)c1cnc(Nc2ncc(C#N)cc2F)cc1NC(C)C [Example 29, (R)-6-((5-cyano-3-fluoropyridin-2-yl)amino)-4-(isopropylamino)-N-(3-(3-isopropylureido)butyl)nicotinamide]
10 nM | CC(C)Nc1cc(Nc2ncc(C#N)cc2F)ncc1C(=O)N[C@H]1CC[C@H](S(C)(=O)=O)CC1 [Example 33, 6-((5-cyano-3-fluoropyridin-2-yl)amino)-4-(isopropylamino)-N-((1R,4R)-4-(methylsulfonyl)cyclohexyl)nicotinamide]
6.1 nM | CC(=O)Nc1nc(Nc2cc(NC(C)C)c(C(=O)NC[C@@H](F)C(C)(C)O)cn2)ncc1C#N [Example 34]
4.5 nM | CC(C)(O)[C@H](F)CNC(=O)c1cnc(Nc2ncc(C(N)=O)cc2Cl)cc1NC1CCC(F)C1 (stereo partly shown) [Example 38]
3.8 nM | C[C@@H](CF)Nc1cc(Nc2ncc(C#N)cc2Cl)ncc1C(=O)NC[C@@H](F)C(C)(C)O [Example 39, 6-((3-chloro-5-cyanopyridin-2-yl)amino)-N—((R)-2-fluoro-3-hydroxy-3-methylbutyl)-4-(((S)-1-fluoropropan-2-yl)amino)nicotinamide]
6.4 nM | CC(C)Nc1cc(Nc2ncc(C#N)c(NC(C)C)n2)ncc1C(=O)NC[C@@H](F)C(C)(C)O [Example 40]
14.7 nM | CC(C)(O)[C@H](F)CNC(=O)c1cnc(Nc2nc(OC3CCNCC3)ncc2Cl)cc1NC1CC1 [Example 42]
10.7 nM | CC(C)(O)C(F)(F)CNC(=O)c1cnc(Nc2ncc(C#N)cc2Cl)cc1NC1CC1 [Example 43, 6-((3-chloro-5-cyanopyridin-2-yl)amino)-4-(cyclopropylamino)-N-(2,2-difluoro-3-hydroxy-3-methylbutyl)nicotinamide]
7.5 nM | CC(C)Nc1cc(Nc2ccc(=O)[nH]n2)ncc1C(=O)NC[C@@H](F)C(C)(C)O [Example 45]
16.9 nM | CC(C)(F)CNc1cc(Nc2ncc(C#N)cc2Cl)ncc1C(=O)NC[C@@H](F)C(C)(C)O [Example 46]
1.9 nM | CC(C)(O)[C@H](F)CNC(=O)c1cnc(Nc2ncc(C#N)cc2F)cc1NC1CC1 [Example 47]
3.1 nM | CC(C)(O)[C@H](F)CNC(=O)c1cnc(Nc2ncc(C#N)cc2F)cc1NC1CCOCC1 [Example 49]
9.4 nM | C[C@@H](CO)Nc1cc(Nc2ncc(C#N)cc2Cl)ncc1C(=O)NC[C@@H](F)C(C)(C)O [Example 50]
4.6 nM | CCNc1cc(Nc2ncc(C#N)cc2Cl)ncc1C(=O)NC[C@@H](F)C(C)(C)O [Example 51]
8.1 nM | CC(C)Nc1cc(Nc2ncncc2F)ncc1C(=O)NC[C@@H](F)C(C)(C)O [Example 53]
5 nM | CC(C)(O)[C@H](F)CNC(=O)c1cnc(Nc2ncc(C#N)cn2)cc1NC1CCC(F)C1 (stereo partly shown) [Example 56]
10.4 nM | CCNc1cc(Nc2ncc(C#N)cn2)ncc1C(=O)NC[C@@H](F)C(C)(C)O [Example 58]
7.4 nM | CNC(=O)[C@H]1CC[C@H](NC(=O)c2cnc(Nc3ncc(C#N)cc3F)cc2NC2CC2)CC1 [Example 59]
6.7 nM | CNC(=O)[C@H]1CC[C@H](NC(=O)c2cnc(Nc3ncc(C#N)cc3Cl)cc2NC2CC2)CC1 [Example 60]
8.4 nM | CNC(=O)[C@H]1CC[C@H](NC(=O)c2cnc(Nc3ncc(C#N)cc3F)cc2NC2CCOCC2)CC1 [Example 61]
3.8 nM | Cc1nc(Nc2cc(NC(C)C)c(C(=O)NC[C@@H](F)C(C)(C)O)cn2)ccc1C#N [Example 63]
3.1 nM | CC(=O)N[C@H](C)CCNC(=O)c1cnc(Nc2ncc(C#N)cc2F)cc1NC(C)C [Example 64]
2.9 nM | CC(C)(O)[C@H](F)CNC(=O)c1cnc(Nc2ncc(C#N)cc2Cl)cc1NCC(F)(F)F [Example 65]

IC50 | Structure (SMILES)
3.8 nM | CCNc1cc(Nc2ncc(C#N)cc2F)ncc1C(=O)NC[C@@H](F)C(C)(C)O [Example 66]
7.2 nM | CC(=O)N[C@H]1CC[C@H](NC(=O)c2cnc(Nc3ncc(C#N)cc3Cl)cc2NC2CC2)CC1 [Example 67]
10.4 nM | CCn1ncc(Nc2cc(NC(C)C)c(C(=O)NC[C@@H](F)C(C)(C)O)cn2)n1 [Example 72]
1.4 nM | CC(C)(O)c1cnc(Nc2cc(Nc3ncc(C#N)cc3Cl)ncc2C(=O)NC[C@@H](F)C(C)(C)O)s1 [Example 75]
6.4 nM | CC(C)(O)[C@H](F)CNC(=O)c1cnc(Nc2ncc(C#N)cc2Cl)cc1NC1CCCC1O (stereo partly shown) [Example 76]
7.8 nM | CC(=O)N[C@H]1CC[C@H](NC(=O)c2cnc(Nc3ncc(C#N)cc3Cl)cc2NC2CCOCC2)CC1 [Example 77]
3 nM | CC(C)(O)[C@H](F)CNC(=O)c1cnc(Nc2ncc(C#N)cc2Cl)cc1NC1CCOCC1F (stereo partly shown) [Example 79]
7 nM | CC(C)Nc1cc(Nc2ncc(F)cc2F)ncc1C(=O)NC[C@@H](F)C(C)(C)O [Example 80]
7.1 nM | CC(C)(O)[C@H](F)CNC(=O)c1cnc(Nc2ccc(Cl)cn2)cc1NC1CC1 [Example 81]
7.3 nM | CC(=O)N[C@H]1CC[C@H](NC(=O)c2cnc(Nc3ncc(C#N)cc3F)cc2NC2CC2)CC1 [Example 83]
3.6 nM | Cc1cc(C#N)cnc1Nc1cc(NC(C)C)c(C(=O)NC[C@@H](F)C(C)(C)O)cn1 [Example 85]
4.8 nM | CC(C)(O)[C@H](F)CNC(=O)c1cnc(Nc2ncc(C#N)cn2)cc1NC1CCC(F)C1 (stereo partly shown) [Example 86]
14.5 nM | CC(C)(O)[C@H](F)CNC(=O)c1cnc(Nc2ncc(F)cc2F)cc1NC1CC1 [Example 89]
3.5 nM | CC(C)(O)[C@H](F)CNC(=O)c1cnc(Nc2ncc(C#N)cc2Cl)cc1NC12CC(C1)C2 [Example 90]
4.3 nM | C[C@@H](CO)Nc1cc(Nc2ncc(C#N)cc2F)ncc1C(=O)NC[C@@H](F)C(C)(C)O [Example 91]
12.7 nM | CC(C)Nc1cc(Nc2ncc(C#N)cc2Cl)ncc1C(=O)N[C@H]1CC[C@H](O)CC1 [Example 92]
17.5 nM | COC(=O)Cn1cc(Cl)c(Nc2cc(NC(C)C)c(C(=O)NC[C@@H](F)C(C)(C)O)cn2)n1 [Example 93]
12.1 nM | CC(C)(O)[C@H](F)CNC(=O)c1cnc(Nc2ncncc2F)cc1NC1CC1 [Example 94]
11.2 nM | CC(C)(O)[C@H](F)CNC(=O)c1cnc(Nc2ncncc2Cl)cc1NC1CCCOC1 (stereo partly shown) [Example 96]
4.2 nM | CCC(C)Nc1cc(Nc2ncc(C#N)cn2)ncc1C(=O)NC[C@@H](F)C(C)(C)O (stereo partly shown) [Example 99]
17.4 nM | C[C@H](CO)Nc1cc(Nc2ncc(F)cc2F)ncc1C(=O)NC[C@@H](F)C(C)(C)O [Example 100]
5.6 nM | C[C@@H](CO)Nc1cc(Nc2ncc(C#N)cn2)ncc1C(=O)NC[C@@H](F)C(C)(C)O [Example 101]
5.3 nM | CC(C)(F)CNc1cc(Nc2ncc(C#N)cc2Cl)ncc1C(=O)NC1CCC(C(C)(C)O)CC1 (stereo not shown) [Example 103]

IC50 | Structure (SMILES)
8.6 nM | CC(C)(O)[C@H](F)CNC(=O)c1cnc(Nc2ncc(C#N)cc2Cl)cc1NC1CCCCC1O (stereo partly shown) [Example 104]
9.1 nM | CC(C)(O)[C@H](F)CNC(=O)c1cnc(Nc2ncc(C#N)cn2)cc1N[C@H]1CCC[C@H]1F [Example 107]
8.7 nM | CC(C)(O)[C@H](F)CNC(=O)c1cnc(Nc2ncc(F)cc2F)cc1NC1CCOCC1F (stereo partly shown) [Example 108]
11.8 nM | CC(C)Nc1cc(Nc2ncc(O)cn2)ncc1C(=O)NC[C@@H](F)C(C)(C)O [Example 111]
11 nM | COc1cnc(Nc2cc(NC3CCC3)c(C(=O)NC[C@@H](F)C(C)(C)O)cn2)nc1 [Example 112]
17 nM | Cc1cnc(Nc2cc(NC(C)C)c(C(=O)NC[C@@H](F)C(C)(C)O)cn2)nc1 [Example 113]
2.3 nM | CC(C)(O)[C@H](F)CNC(=O)c1cnc(Nc2ncc(C#N)cc2F)cc1NC1CCC(F)C1 (stereo partly shown) [Example 114]
2.8 nM | CC(C)Nc1cc(Nc2ncc(C#N)cc2F)ncc1C(=O)N[C@H]1CC[C@H](C(=O)NC(C)C)CC1 [Example 116]
3.8 nM | CCC(O)(CC)[C@H](F)CNC(=O)c1cnc(Nc2ncc(C#N)cn2)cc1NC(C)C [Example 117]
4.6 nM | CC(C)Nc1cc(Nc2ncc(C#N)cc2F)ncc1C(=O)N[C@H]1CC[C@H](C(=O)NC2CC2)CC1 [Example 118]
10.5 nM | CC(C)(O)[C@H](F)CNC(=O)c1cnc(Nc2ncc(C#N)cc2F)cc1NC12CC3CC(CC(C3)C1)C2 [Example 119]
6.6 nM | CC(C)Nc1cc(Nc2ncc(C#N)cc2F)ncc1C(=O)NCCc1ccc(S(N)(=O)=O)cc1 [Example 121]
3.3 nM | CC(C)(O)[C@H](F)CNC(=O)c1cnc(Nc2ncc(C#N)cc2F)cc1Nc1cccc(CO)c1 [Example 122]
3.5 nM | CC(C)Nc1cc(Nc2ncc(Cl)cc2F)ncc1C(=O)NC[C@@H](F)C(C)(C)O [Example 123]
5.7 nM | CC(C)(O)[C@H](F)CNC(=O)c1cnc(Nc2ncc(Cl)cc2F)cc1NC1CC1 [Example 124]
3.6 nM | CC(C)(O)[C@H](F)CNC(=O)c1cnc(Nc2ncc(C#N)cc2F)cc1Nc1cccc(O)c1 [Example 125]
2.9 nM | CC(C)(O)[C@H](F)CNC(=O)c1cnc(Nc2ncc(C#N)cc2F)cc1NCC(F)(F)C(C)(C)O [Example 126]
15.3 nM | CC(C)Nc1cc(Nc2ncc(C#N)cc2F)ncc1C(=O)NCCCOC(C)(C)C [Example 127]
4.6 nM | CC(C)(O)[C@H](F)CNC(=O)c1cnc(Nc2ncc(C#N)cc2F)cc1Nc1cccc(S(N)(=O)=O)c1 [Example 128]
15.9 nM | Cc1cnc(Nc2cc(NC(C)C)c(C(=O)NC[C@@H](F)C(C)(C)O)cn2)c(F)c1 [Example 129]
4 nM | COc1cccc(Nc2cc(Nc3ncc(C#N)cc3F)ncc2C(=O)NC[C@@H](F)C(C)(C)O)c1 [Example 130]
10.6 nM | CC(C)Nc1cc(Nc2ccnc(N)n2)ncc1C(=O)NC[C@@H](F)C(C)(C)O [Example 131]

Structure (SMILES) | IC50
CC(C)(O)[C@H](F)CNC(=O)c1cnc(Nc2ncc(C#N)cc2F)cc1NC1CCCOC1 (stereo partly shown) [Example 97] | 5.3 nM
CC(C)(O)[C@H](F)CNC(=O)c1cnc(Nc2ncc(C#N)cc2F)cc1NC1CCCOC1 (stereo partly shown) [Example 98] | 7.5 nM
